Measurements reported in article PMC3004530 (Journal of the American Chemical Society, 2010).

How the values were obtained:
HDAC = details: cited from earlier work
HDACs 1, 2 and 3 = assay: Mode of inhibition / deacetylation progression; assay type: biochemical
HDAC8 = HDAC8 (Homo sapiens, UniProt Q9BY41)
HDAC6 = HDAC6 (Homo sapiens, UniProt Q9UBN7)
HDAC2 = HDAC2 (Homo sapiens, UniProt Q92769); assay: HDAC2 high-throughput coupled biochemical assay
HDAC3 = HDAC3 (Homo sapiens, UniProt O15379); assay: HDAC3 biochemical inhibition assay; details: read-out: IC50 HDAC3
HDACs 4-8 = assay: HDAC biochemical inhibition, HDACs 4-8; details: data not shown
HDAC1 = HDAC1 (Homo sapiens, UniProt Q13547); assay: HDAC1 biochemical inhibition assay; details: read-out: IC50 HDAC1
Sequence of HDAC1 (Q13547 whole entry, species assumed): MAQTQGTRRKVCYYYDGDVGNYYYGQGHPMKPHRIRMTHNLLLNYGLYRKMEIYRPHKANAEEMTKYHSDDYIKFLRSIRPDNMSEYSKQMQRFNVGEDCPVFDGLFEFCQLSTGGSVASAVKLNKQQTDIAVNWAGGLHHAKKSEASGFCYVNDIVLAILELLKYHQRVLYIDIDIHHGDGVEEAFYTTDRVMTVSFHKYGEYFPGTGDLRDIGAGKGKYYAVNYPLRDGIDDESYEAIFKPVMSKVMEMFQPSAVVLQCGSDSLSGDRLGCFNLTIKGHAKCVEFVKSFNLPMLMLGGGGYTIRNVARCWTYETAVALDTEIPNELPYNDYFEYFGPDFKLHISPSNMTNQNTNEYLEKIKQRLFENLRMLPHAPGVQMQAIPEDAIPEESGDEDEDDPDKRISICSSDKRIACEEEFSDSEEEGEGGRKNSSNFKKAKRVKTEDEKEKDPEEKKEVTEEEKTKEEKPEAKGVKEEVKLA

Sequence of HDAC2 (Q92769 whole entry, species assumed): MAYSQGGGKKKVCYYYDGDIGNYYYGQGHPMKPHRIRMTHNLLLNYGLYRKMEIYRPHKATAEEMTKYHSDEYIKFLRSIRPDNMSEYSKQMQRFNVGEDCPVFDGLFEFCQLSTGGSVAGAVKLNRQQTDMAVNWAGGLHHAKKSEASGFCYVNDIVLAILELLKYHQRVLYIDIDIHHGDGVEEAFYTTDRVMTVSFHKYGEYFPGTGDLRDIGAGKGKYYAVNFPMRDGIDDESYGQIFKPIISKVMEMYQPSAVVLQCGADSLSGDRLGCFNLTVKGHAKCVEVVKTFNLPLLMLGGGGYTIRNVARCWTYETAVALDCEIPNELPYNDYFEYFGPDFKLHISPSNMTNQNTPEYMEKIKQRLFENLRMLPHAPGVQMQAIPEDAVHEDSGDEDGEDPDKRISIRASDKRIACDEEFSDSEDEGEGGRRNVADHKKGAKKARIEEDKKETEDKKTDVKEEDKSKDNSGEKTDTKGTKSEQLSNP
Sequence of HDAC3 (O15379 whole entry, species assumed): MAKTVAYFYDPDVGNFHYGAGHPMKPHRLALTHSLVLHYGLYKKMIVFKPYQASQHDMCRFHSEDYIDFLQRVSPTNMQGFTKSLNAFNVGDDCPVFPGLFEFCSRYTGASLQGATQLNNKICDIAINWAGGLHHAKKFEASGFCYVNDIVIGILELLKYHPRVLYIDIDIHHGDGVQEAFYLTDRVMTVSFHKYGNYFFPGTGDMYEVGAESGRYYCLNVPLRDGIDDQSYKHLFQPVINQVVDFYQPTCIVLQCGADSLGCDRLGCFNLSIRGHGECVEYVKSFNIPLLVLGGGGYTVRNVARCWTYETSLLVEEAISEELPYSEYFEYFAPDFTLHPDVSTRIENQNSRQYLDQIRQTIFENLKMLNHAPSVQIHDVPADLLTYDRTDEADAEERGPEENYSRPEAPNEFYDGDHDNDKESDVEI
Sequence of HDAC3 (Q9Y618 395-489 partner limits assumed, species assumed): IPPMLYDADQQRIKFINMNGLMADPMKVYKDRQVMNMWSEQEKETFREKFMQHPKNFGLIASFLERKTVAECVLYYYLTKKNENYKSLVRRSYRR
Sequence of HDAC6 (Q9UBN7 whole entry, species assumed): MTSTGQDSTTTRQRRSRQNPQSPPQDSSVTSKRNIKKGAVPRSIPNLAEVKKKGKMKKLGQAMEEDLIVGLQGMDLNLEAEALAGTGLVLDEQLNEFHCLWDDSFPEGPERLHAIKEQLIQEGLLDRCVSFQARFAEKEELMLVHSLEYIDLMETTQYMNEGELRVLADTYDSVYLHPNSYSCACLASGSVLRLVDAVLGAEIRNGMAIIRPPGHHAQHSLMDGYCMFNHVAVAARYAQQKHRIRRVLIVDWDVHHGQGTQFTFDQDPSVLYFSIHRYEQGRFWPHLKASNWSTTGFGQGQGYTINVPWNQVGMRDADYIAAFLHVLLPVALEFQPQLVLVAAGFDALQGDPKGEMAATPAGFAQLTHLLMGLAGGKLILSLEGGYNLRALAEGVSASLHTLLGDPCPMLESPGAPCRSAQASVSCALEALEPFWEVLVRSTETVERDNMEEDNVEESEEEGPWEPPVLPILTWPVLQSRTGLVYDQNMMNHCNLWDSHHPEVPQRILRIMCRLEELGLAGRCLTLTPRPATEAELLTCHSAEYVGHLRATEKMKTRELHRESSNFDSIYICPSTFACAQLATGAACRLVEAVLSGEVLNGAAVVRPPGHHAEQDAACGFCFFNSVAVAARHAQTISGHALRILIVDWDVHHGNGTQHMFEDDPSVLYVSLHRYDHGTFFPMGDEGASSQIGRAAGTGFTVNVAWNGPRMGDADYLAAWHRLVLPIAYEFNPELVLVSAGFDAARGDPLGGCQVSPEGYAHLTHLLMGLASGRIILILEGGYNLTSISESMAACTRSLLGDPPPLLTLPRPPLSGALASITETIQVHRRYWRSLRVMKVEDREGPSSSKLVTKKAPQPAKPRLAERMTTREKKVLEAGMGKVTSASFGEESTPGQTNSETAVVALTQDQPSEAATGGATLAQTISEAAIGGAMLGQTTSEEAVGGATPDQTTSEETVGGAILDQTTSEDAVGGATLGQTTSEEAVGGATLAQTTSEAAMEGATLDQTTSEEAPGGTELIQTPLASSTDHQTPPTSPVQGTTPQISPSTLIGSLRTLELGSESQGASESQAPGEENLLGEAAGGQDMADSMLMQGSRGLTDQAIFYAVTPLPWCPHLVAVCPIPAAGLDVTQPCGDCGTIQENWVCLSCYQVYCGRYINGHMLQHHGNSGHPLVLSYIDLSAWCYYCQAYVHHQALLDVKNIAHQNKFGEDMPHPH
Sequence of HDAC8 (Q9BY41 whole entry, species assumed): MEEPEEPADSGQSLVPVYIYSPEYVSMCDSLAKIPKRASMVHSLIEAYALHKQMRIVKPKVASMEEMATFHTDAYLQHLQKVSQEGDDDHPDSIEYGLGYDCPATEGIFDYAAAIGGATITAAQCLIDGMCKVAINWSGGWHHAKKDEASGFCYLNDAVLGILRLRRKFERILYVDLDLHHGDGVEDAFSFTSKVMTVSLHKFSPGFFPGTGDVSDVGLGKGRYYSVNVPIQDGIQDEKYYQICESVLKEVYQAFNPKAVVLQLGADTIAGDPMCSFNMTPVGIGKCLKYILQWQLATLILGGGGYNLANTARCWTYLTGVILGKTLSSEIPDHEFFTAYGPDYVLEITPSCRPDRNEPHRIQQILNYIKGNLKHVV

CCC(=O)CCCCC[C@@H]1NC(=O)[C@H]2CCCCN2C(=O)[C@H]([C@@H](C)CC)NC(=O)[C@H](Cc2cn(OC)c3ccccc23)NC1=O [Apicidin]
HDAC class selectivity (HDAC): selectivity for class I HDACs
potency in HDAC biochemical assay (HDAC): single digit nanomolar potency

O=C(CCCCCCC(=O)Nc1ccccc1)NO [SAHA]
binding kinetics nature (deacetylation progression linear) (HDACs 1, 2 and 3): fast-on/fast-off
inhibition of HDAC8 (HDAC8): inhibits
inhibition of HDAC6 (HDAC6): inhibits

C[C@@H]1CCCCO[C@@H](CN(C)Cc2ccc3c(c2)OCO3)[C@H](C)CN([C@@H](C)CO)C(=O)c2cc(N(C)C)ccc2O1 [entry 1]
fold improvement in HDAC2 potency (HDAC2; compared to lead stereoisomer (2R,5S,6R,12R)-32): > 10 fold
IC50 (HDAC2; read-out: IC50 HDAC2): 6600 ± 400 nM
IC50 (HDAC3): 2700 ± 200 nM
activity against HDACs 4-8 (HDACs 4-8): inactive
IC50 (HDAC1): 2700 ± 300 nM
